Laboratory results from article PMC11363342 (ACS Central Science, 2024).
“Also recorded” adds a separate entry of the source.

How the values were obtained:
[1] = system: recombinant Mus musculus α-Glu II; experiment: Thermal shift assay (SYPRO orange); type: binding; conditions: 10 μM Mmα-Glu-II with 50 μM inhibitor; unliganded control 49.9 °C
MERS-CoV = type: cell-based; conditions: HuH-7, MOI 1, 16 hpi, increasing concentrations
SARS-CoV-2 [2] = experiment: Viral load reduction assay in ALI-PBEC; type: cell-based; conditions: ALI-PBEC
Procedure: Thus, ALI-PBEC cells were infected with SARS-CoV-2 (10^5 PFU per insert; estimated MOI ∼0.1) and treated with compounds on the apical side of the cells for 2 h. For uninfected controls, PBS was used instead of virus. The compounds were also present in the basal medium during the whole experiment until 48 hpi, when samples were harvested. […] (Figure 4D).
ALI-PBEC were pretreated with compound in the basal medium for 3 h. Cells were infected with 100 000 PFU of SARS-CoV-2/Leiden0008 per insert (estimated MOI 0.1) with compounds present in the inoculum. After 2 h at 37 °C on a rocking platform, the inoculum was removed and cells were washed three times with warm PBS. Compounds stayed present in the basal medium until 48 h postinfection. At 48 hpi the viral load was determined by plaque assay on a 200 μL apical wash (PBS incubated on the apical side of the insets for 10 min at 37 °C). For assessing cytotoxicity with the CyQuant LDH cytotoxicity assay (Thermo Fisher Scientific), 10 μL of apical wash was diluted 5 times with 40 μL of PBS. A 25 μL volume of this dilution was added to 25 μL of assay reagent and incubated for 30 min at RT in the dark. The plate was fixed and measured at a wavelength of 490 nm (Envision reader, PerkinElmer). For the activity-based probe labeling, the insets were washed one more time with PBS and processed as described previously.[52] Briefly, cells were lysed with 60 μL of potassium phosphate buffer per insert. A fluorescently labeled probe (JJB383) was diluted in MclIvaine buffer (pH 7) to a 10 μM stock and incubated for 5 min on ice. For labeling of the cell lysate, 10 μL of lysate was added to 10 μL of MclIvaine buffer and 5 μL of probe. The lysate was incubated for 30 min at 37 °C before the addition of 10 μL of Laemmli sample buffer (4×). Samples were heated at 95 °C for 5 min and separated in a 10% SDS-PAGE gel. Fluorescence was measured at a wavelength of 625 nm (Cy5) with a Uvitec Alliance Q9 imager (BioSPX). After imaging, the gels were stained with GelCode Blue stain reagent (Thermo Fisher Scientific) and visualized using a Uvitec Essential V6 system to check for equal loading.

SARS-CoV-2 S protein = type: cell-based
SARS-CoV-2 [3] = experiment: CPE reduction assay on H1299/ACE2 lung epithelial cells; type: cell-based; conditions: compared with Vero E6
GBA1 = conditions: cited from earlier work
GBA2 = conditions: cited from earlier work
GBA3 = conditions: cited from earlier work
GCS = system: GCS; parameters: method as in PMID 28776021; conditions: cited from earlier work
in vitro = conditions: African green monkey
SARS-CoV-2 [4] = experiment: Virucidal activity assay; conditions: virus incubated 1 h; compound 11 at 50 μM

Q: Which results are given for `O=S1(=O)O[C@@H]2[C@H](O)[C@@H](O)[C@H](O)[C@@H](CO)[C@@H]2O1` [Compound 11, 1,6-epi-cyclophellitol cyclosulfate]?
A: Tm/°C [1]: 63.3 °C; infectious progeny of MERS-CoV (in words) (MERS-CoV): significant reduction of infectious progeny; concentration at which the maximum antiviral effect was reached (SARS-CoV-2 [2]): 0.5 µM; reduction of viral load vs untreated control (SARS-CoV-2 [2]; 0.5 μM, 48 hpi): up to 100 fold; reduction of infectious virus titers (SARS-CoV-2 [2]; 0.5–1.6 μM): up to 2 logs; S protein in infected cells (immunofluorescence) (SARS-CoV-2 S protein): reduction in the amount of S protein; syncytium formation (SARS-CoV-2 S protein): reduced syncytium formation; EC50 values in CPE reduction assay (in words) (SARS-CoV-2 [3]): comparable EC50 values; inhibition of GBA1 (GBA1): completely inactive; also recorded: does not inhibit; inhibition of GBA2 (GBA2): completely inactive; also recorded: does not inhibit; inhibition of GBA3 (GBA3): does not inhibit; inhibition of GCS (GCS): does not inhibit; CC50 at 3 days (in vitro): > 200 µM; virucidal effect on infectious titer (SARS-CoV-2 [4]): no effect on the infectious titer
